Assay [1] deals with male Swiss-albino mice (CD-1 strain). Put plainly: NMDA antagonism in mice: NMDA-induced generalized myoclonus and death, ED50 for survival. The assay is classed as in vivo. Conditions: mice pretreated 30 min before NMDA 195 mg/kg i.p. Here is the method: The mice were pretreated with the representative test compounds followed thirty minutes later with NMDA (195 mg/kg, i.p., the ED90 dose for generalized myoclonus). The mice were then observed for 30 minutes, noting the latency of onset of generalized myoclonus (uncontrollable hind leg scratching or limbs and/or torso muscle jerking with loss of righting reflex) and death. From the latter, the ED50 for survival is determined.

The test system of assay [2] is NMDA-induced neuronal release of norepinephrine. Put plainly: Inhibition of NMDA-induced [3H]norepinephrine release from rat hippocampal slices. The assay is classed as cell-based. Conditions: 100 μM concentration, NMDA 150 μM. Here is the method:
In addition, the compounds involved herein were established as inhibitors of NMDA-induced neuronal release of norepinephrine by showing that (-)-13β-methylamino-3-methoxy-5α-methyl-5,6,7,8,9,10,11,12-octahydro-5,11-meth-anobenzocyclodecene inhibits 89 percent of the NMDA-inducednorepinephrine release at 100 μM concentration in the following standard test procedure:
Rat hippocampal slices (0.5 mm thick) were incubated (37° C.) for 30 minutes in oxygenated (bubbled 95% O2 /5% CO2), physiological medium (containing 117 mM NaCl, 4.7 mM KCl, 11.5 mM glucose, 1.2 mM MgCl2, 10 μM pargyline, 1 mM ascorbate, 1.2 mM NaH2 PO4 and 25 mM NaHCO3, adjusted to pH 7.4). The slices were then washed with 0.9% NaCl and incubated in physiological medium with 0.1 μM [^3 H] norepinephrine (30 minutes, 37° C.). The slices were again washed with 0.9% NaCl and then placed in tubes (borosilicate glass, 12×75 mm) containing 0.5 ml Mg^+2 -free physiological medium with 50 μM corticosterone and 10 μM desipramine added to minimize norepinephrine reuptake. Samples were analyzed for [^3 H] content at 5 minute intervals. After 75 minutes, the inhibitor drug was added. Fifteen minutes later NMDA was added to a concentration of 150 μM. The amount of [^3 H] released was measured by liquid scintillation spectroscopy. […]

Take `CNC1C2CCCCCC1(C)c1cc(OC)ccc1C2` (single isomer, unassigned; (-)) [(-)-13β-methylamino-3-methoxy-5α-methyl-5,6,7,8,9,10,11,12-octahydro-5,11-methanobenzocyclodecene]: the figures for the ED50 for survival in assay [1] (i.p.) and in assay [1] (p.o.) were 56 mg/kg and 97 mg/kg, respectively. Besides, the “inhibition of NMDA-induced norepinephrine release” value in assay [2] came to 89%.
